In US20170003277A1 (priority 2015, published 2017):
Values joined by “and” are separate entries in the source; they are usually repeats but may differ in a detail not shown here. Equal values may be shown once. Read-outs that look alike come from different tables or passages of the source.

Experiments:
[1] = Long-term animal toxicity studies of TV-5010; design: species or system rats and monkeys; conditions: in vivo
[2] = tested on: mouse splenocytes, THP-1 human monocyte cell line, PBMCs from MS patients; conditions: prior study (ACTRIMS-ECTRIMS 2014, P282); cited from earlier work
[3] = tested on: THP-1 human monocyte cell line; type: cell-based; conditions: for Number of genes significantly modulated by Copaxone relative to mannitol: FDR-adjusted p<0.05
Experimental: Prior to treatment cells were passed and plated in a 6-well plate at a concentration of 1.0×10^6 cells/mL. Cells were allowed to recover for four hours after passage (prior to treatment). […] Each sample was analyzed in six replicates. Cells were treated for 6, 12, and 24 hours. Following treatment time cells were lysed using a Qiagen® based lysis kit. Prior to RNA isolation samples were randomized in order to avoid batch effect. Total RNA was isolated using Qiagen® RNeasy kit. RNA quality was assessed by determining the absorbance ratio 260/280 nm as well as electrophoresis bioanalyzer with 260/280 ratio of 1.9-2.1 and RIN of above 9 were deemed acceptable. Gene expression was measured using Affymetrix® U133 plus 2.0 format. Sample processing was executed according to established manufacturer protocols. The scheme in (FIG. 2) illustrates the general experimental outline.
RNA from THP-1 cells was extracted and expression profiled across the entire genome using the Affymetrix Human Genome U133 Plus 2.0 chip, interrogating a total of over 47,000 transcripts. Four batches of Copaxone® and one batch of Probioglat were comparatively tested in six biological replicates each. Key identified genes were independently evaluated for level of gene expression by quantitative Real-Time PCR of samples collected in the same experiments.
mRNA expression levels were compared between GA and control (mannitol) tested with 6 sample replicates for each of 4 batches of GA and for mannitol, using LIMMA (Sim et al., Nat. Biotechnol. 2011) (Methods). […] We chose 6h for initial downstream analysis since this timepoint reflects the greatest impact of treatment. […] Rather, this decrease in number of genes affected from early to later timepoints represents an attribute of the response of the cells to the drug.
To identify differences between branded GA and differently manufactured glatiramoids, differential gene expression analysis was performed to compare directly between profiles induced by branded GA and by the purported generic glatiramoid, Probioglat. The standard R LIMMA bioconductor package was utilized to measure differentially expressed probesets across the entire microarray. To compare GA and Probioglat, comparisons were corrected to compare each treatment relative to mannitol control (i.e., [GA vs mannitol] was compared via LIMMA to [Probioglat vs mannitol]). Probesets were filtered by calls of presence on the chip for the relevant samples in the comparison (to be considered present at a given timepoint, a probeset was required to have on average a call of present or marginal across the relevant samples at that timepoint). Probesets were mapped to genes using the annotation available for the U133 Plus 2.0 chip from Affymetrix. FDR adjusted p values reported for genes represent the lowest FDR adjusted p value for present probesets for that gene.

[4] = 6 hr, FDR p < 1e−5, |FC| >= 1.3
[5] = 6 hr, FDR p < 1e−5, |FC| >= 1.5
[6] = 6 hr, nominal p < 0.05, vs mannitol
[7] = 12 hr, FDR p < 1e−5, |FC| >= 1.3
[8] = 12 hr, FDR p < 1e−5, |FC| >= 1.5
[9] = 24 hr, FDR p < 1e−5, |FC| >= 1.3
[10] = 24 hr, FDR p < 1e−5, |FC| >= 1.5

glatiramer acetate [Copaxone®]
Toxicity in long-term animal studies [1]: never seen
Genes modulated by Copaxone in both mouse splenocyte and THP-1 systems [2]: 1,378
Genes modulated by Copaxone only in THP-1 cells [2]: 2,121
Genes modulated by Copaxone only in splenocytes [2]: 6,691
raw.FC 202434_s_at CYP1B1 [3]: 2.203
raw.FC 202435_s_at CYP1B1 [3]: 1.96
raw.FC 202436_s_at CYP1B1 [3]: 2.027
raw.FC 202437_s_at CYP1B1 [3]: 1.809
IL1RN fold change (FC), all present probesets ([3]; 6h, GA vs mannitol, listed as GA): 1.43 and 1.35 and 1.26
Number of genes significantly modulated by Copaxone relative to mannitol ([3]; 6 hour): 6,890
IL10 fold change (FC) ([3]; 6 hour, GA vs mannitol): 1.52
Number of genes Down-regulated by GA ([3]; 6 hr, FDR p < 0.05): 4066
Number of genes Up-regulated by GA ([3]; 6 hr, FDR p < 0.05): 2824
Number of genes Down-regulated by GA [3, 4]: 508
Number of genes Up-regulated by GA [3, 4]: 557
Number of genes Down-regulated by GA [3, 5]: 119
Number of genes Up-regulated by GA [3, 5]: 257
Number of genes Down-regulated by GA [3, 6]: 4909
Number of genes Up-regulated by GA [3, 6]: 3511
Number of genes significantly modulated by Copaxone relative to mannitol ([3]; 12 hours): 3,118
Number of genes Down-regulated by GA ([3]; 12 hr, FDR p < 0.05): 1810
Number of genes Up-regulated by GA ([3]; 12 hr, FDR p < 0.05): 1308
Number of genes Down-regulated by GA [3, 7]: 50
Number of genes Up-regulated by GA [3, 7]: 210
Number of genes Down-regulated by GA [3, 8]: 10
Number of genes Up-regulated by GA [3, 8]: 68
Number of genes Down-regulated by GA ([3]; 12 hr, nominal p < 0.05): 3430
Number of genes Up-regulated by GA ([3]; 12 hr, nominal p < 0.05): 2377
Number of genes significantly modulated by Copaxone relative to mannitol ([3]; 24 hours): 1,791
Number of genes Down-regulated by GA ([3]; 24 hr, FDR p < 0.05): 1185
Number of genes Up-regulated by GA ([3]; 24 hr, FDR p < 0.05): 606
Number of genes Down-regulated by GA [3, 9]: 6
Number of genes Up-regulated by GA [3, 9]: 57
Number of genes Down-regulated by GA [3, 10]: 0
Number of genes Up-regulated by GA [3, 10]: 15
Number of genes Down-regulated by GA ([3]; 24 hr, nominal p < 0.05): 3724
Number of genes Up-regulated by GA ([3]; 24 hr, nominal p < 0.05): 1410
CCL2 expression relative to mannitol control ([3]; THP-1, 6 hours): decreased
CD14 expression versus mannitol control ([3]; THP-1, 6 hours): not modulated
CD14 201743_at Copaxone Expression Value Range Maximum ([3]; THP-1, all Copaxone samples): 9.69
CD14 201743_at Copaxone Expression Value Range Minimum ([3]; THP-1, all Copaxone samples): 9.32
CISH 223377_x_at Copaxone Expression Value Range Maximum ([3]; THP-1, all Copaxone samples): 9.11
CISH 223377_x_at Copaxone Expression Value Range Minimum ([3]; THP-1, all Copaxone samples): 8.86
CISH 223961_s_at Copaxone Expression Value Range Maximum ([3]; THP-1, all Copaxone samples): 7.69
CISH 223961_s_at Copaxone Expression Value Range Minimum ([3]; THP-1, all Copaxone samples): 7.24
ICAM1 202637_s_at Copaxone Expression Value Range Maximum ([3]; THP-1, all Copaxone samples): 8.06
ICAM1 202637_s_at Copaxone Expression Value Range Minimum ([3]; THP-1, all Copaxone samples): 7.44
ICAM1 202638_s_at Copaxone Expression Value Range Maximum ([3]; THP-1, all Copaxone samples): 7.30
ICAM1 202638_s_at Copaxone Expression Value Range Minimum ([3]; THP-1, all Copaxone samples): 6.51
MMP9 203936_s_at Copaxone Expression Value Range Maximum ([3]; THP-1, all Copaxone samples): 9.97
MMP9 203936_s_at Copaxone Expression Value Range Minimum ([3]; THP-1, all Copaxone samples): 9.53
